# Laboratory results taken from patent US11046693B2, “Pyrido-phenanthroline derivatives, production and use thereof as medicaments” (Christian-Albrechts-Universitat Zu Kiel, priority 2016, dated 2021).
# Where a name gives a salt, the structure may show the parent alone.
# Tests used:
# [1] = tested on: 60 different human pathogenic tumor cell lines; test: DTP NCI-60 in vitro human tumor cell line screening (SRB); type: cell-based; conditions: mean growth inhibition of all 60 tumor cell lines, two days exposure
# Procedure: For studying the pharmacological properties, the compounds of Examples 1 to 3 were tested under the “DTP NCI-60 in vitro human tumor cell line screening” of the National Cancer Institute (NCI), Bethesda, Md., United States. They were tested against 60 different human pathogenic tumor cell lines which originated from nine types of cancer (leukemia, non-small cell lung cancer, colon cancer, cancer of the CNS, melanoma, ovarian cancer, renal cancer, prostate cancer, breast cancer). To assess efficacy, the tumor cells were exposed to the compounds over two days, then growth inhibition was determined indirectly by determining the protein biomass with sulforhodamine B (SRB). Untreated cultures were used as reference. The mean-graph midpoint (MG_MIDGGI50) corresponds to a mean response rate of all tested human cell lines for the substance tested.
# HeLa cells = test: PARP apoptosis assay (HeLa cells); type: cell-based; conditions: after 8 h, FIG. 3
# Procedure: (§1) In addition, exemplary compound 1 was tested for apoptotic activity. The enzyme PARP (poly-ADP ribose polymerase) can be used to determine the apoptotic status of a cell; the enzyme is cleaved into a 89 kDa fragment when the cell transitions into apoptosis and can therefore serve as a apoptosis marker ([…] S H et al, Cancer Research, 1993; 53:3976-3985). […] Etoposide was chosen as reference compound and tested as well.
# logD by HPLC analysis = type: physicochemical; conditions: determined using HPLC analysis
# [2] = Solubility pH 7.4 by HPLC analysis; type: physicochemical; conditions: aqueous buffer; pH 7.4, HPLC analysis
# [3] = tested on: malignant melanoma, cervical cancer, and cancer of the parotid gland; conditions: clinical phase I; cited from earlier work
# [4] = tested on: colon carcinoma and non-small cell lung cancer; conditions: in-vivo xenograft; cited from earlier work
# [5] = tested on: cancer in the head and neck, colon carcinoma, renal carcinoma, and non-small cell lung cancer; conditions: literature; cited from earlier work
# [6] = tested on: malignant melanoma, hepatocellular carcinoma, and mesothelioma; conditions: clinical study, with carboplatin; cited from earlier work
# [7] = tested on: PARP (poly-ADP ribose polymerase) cleavage; test: PARP assay comparing Example 1 and PZA (FIG. 4); type: cell-based
# Procedure: as §1
# Another PARP assay was performed to obtain a direct comparison of the pro-apoptotic effects of Example 1 (here: P8D 6) and the potent dual topoisomerase I/II inhibitor pyrazoloacridine (PZA) known from literature (FIG. 4).
# [8] = tested on: pancreatic carcinoma, ovarian carcinoma, and prostate cancer; conditions: phase II study, at least some cases; cited from earlier work
# human topoisomerase IIα = human topoisomerase IIα (Homo sapiens, UniProt P11388); test: Decatenation assay (kDNA); type: biochemical; conditions: for inhibition of topo IIα: 10 μM and 100 μM, FIG. 2 lanes 4 and 5
# Excerpt: (§2) A decatenation assay was used, which can be used to determine the inhibition of human topoisomerases II (α/β) by a substance. The protein is capable of decatenating kinetoplastid DNA (kDNA), which is present in the form of interlocked minicircles (so-called catenates), i.e. of cleaving it into individual minicircles.
# human topoisomerase I = biological target: T1, human topoisomerase I (Homo sapiens, UniProt P11387); test: Relaxation assay (supercoiled plasmid pUC18); type: biochemical
# T1 sequence (P11387 1-765): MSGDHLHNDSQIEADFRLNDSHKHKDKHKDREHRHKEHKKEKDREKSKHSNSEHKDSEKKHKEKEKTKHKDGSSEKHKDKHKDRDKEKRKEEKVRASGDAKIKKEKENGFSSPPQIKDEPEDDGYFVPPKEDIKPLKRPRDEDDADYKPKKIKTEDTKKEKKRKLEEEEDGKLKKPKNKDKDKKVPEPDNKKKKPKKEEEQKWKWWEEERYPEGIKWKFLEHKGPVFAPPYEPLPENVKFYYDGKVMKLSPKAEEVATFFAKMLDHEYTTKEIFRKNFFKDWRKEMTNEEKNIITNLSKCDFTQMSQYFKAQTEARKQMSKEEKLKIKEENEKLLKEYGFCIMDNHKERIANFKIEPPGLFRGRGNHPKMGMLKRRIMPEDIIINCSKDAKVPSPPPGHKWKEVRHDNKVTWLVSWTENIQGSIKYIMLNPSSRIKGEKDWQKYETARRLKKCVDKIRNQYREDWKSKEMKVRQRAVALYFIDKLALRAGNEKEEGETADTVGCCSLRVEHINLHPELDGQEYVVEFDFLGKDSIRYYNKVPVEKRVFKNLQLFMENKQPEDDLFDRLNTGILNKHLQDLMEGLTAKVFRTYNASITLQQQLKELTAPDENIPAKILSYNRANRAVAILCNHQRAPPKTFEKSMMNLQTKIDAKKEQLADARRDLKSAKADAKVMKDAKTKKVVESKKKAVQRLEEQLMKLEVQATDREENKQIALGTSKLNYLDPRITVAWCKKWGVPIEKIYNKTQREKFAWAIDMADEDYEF
# Excerpt: A relaxation assay can be used to determine the inhibition of human DNA topoisomerase I by a substance. Topo I is capable of transforming the supercoiled plasmid pUC18 into the relaxed form.
# [9] = Tolerability / MTD study, one-time intravenous application; type: in vivo, female athymic nude mice
# Procedure: The maximum tolerated dose (MTD) was determined as part of an in vivo study of tolerability of P8-D6 in female athymic nude mice.
# A total of 18 female athymic nude mice at ages of 7 weeks (groups 1 and 2), 8 weeks (groups 3 and 4), and 9 weeks (groups 5 and 6) were involved in the in vivo study.
# To determine the tolerability of P8-D6 for a one-time intravenous application into the tail vein, the study animals of groups 2, 4, and 6 (3 animals per group) were given P8-D6 at doses of 1 mg/kg body weight, 5 mg/kg body weight, and 10 mg/kg body weight on study days 0, 7, and 14, respectively. The control animals of groups 1, 3, and 5 (3 animals per group) were administered PBS (phosphate buffered saline) (pH 7.4) at a dose of 10 mL/kg body weight on the same respective days. The study animals were monitored in a period of up to 14 days for clinical signs, changes in behavior, and survival. The body weight was measured three times a week. The first measurement was on the application day. Criteria for early abortion of the study for ethical reasons were weight loss of more than 20% from the baseline weight. A necropsy was performed on study animals that died during the study and on all other study animals at the end of the study phase. Organ samples were taken from six study animals ([…], 1 animal from group 1, 1 animal from group 2, and one animal from group 6).
# human topoisomerase IIβ = human topoisomerase IIβ (Homo sapiens, UniProt Q02880); test: Decatenation assay (kDNA); type: biochemical; conditions: all three enzymes tested; read-out: IC50 topoisomerase IIβ
# Excerpt: as §2
# [10] = clinical phase I; cited from earlier work
# [11] = tested on: mammary carcinoma, ovarian carcinoma, colon carcinoma, renal cell carcinoma, and non-small cell lung cancer; conditions: literature; cited from earlier work
# human topoisomerase IIα, sequence (P11388 whole entry): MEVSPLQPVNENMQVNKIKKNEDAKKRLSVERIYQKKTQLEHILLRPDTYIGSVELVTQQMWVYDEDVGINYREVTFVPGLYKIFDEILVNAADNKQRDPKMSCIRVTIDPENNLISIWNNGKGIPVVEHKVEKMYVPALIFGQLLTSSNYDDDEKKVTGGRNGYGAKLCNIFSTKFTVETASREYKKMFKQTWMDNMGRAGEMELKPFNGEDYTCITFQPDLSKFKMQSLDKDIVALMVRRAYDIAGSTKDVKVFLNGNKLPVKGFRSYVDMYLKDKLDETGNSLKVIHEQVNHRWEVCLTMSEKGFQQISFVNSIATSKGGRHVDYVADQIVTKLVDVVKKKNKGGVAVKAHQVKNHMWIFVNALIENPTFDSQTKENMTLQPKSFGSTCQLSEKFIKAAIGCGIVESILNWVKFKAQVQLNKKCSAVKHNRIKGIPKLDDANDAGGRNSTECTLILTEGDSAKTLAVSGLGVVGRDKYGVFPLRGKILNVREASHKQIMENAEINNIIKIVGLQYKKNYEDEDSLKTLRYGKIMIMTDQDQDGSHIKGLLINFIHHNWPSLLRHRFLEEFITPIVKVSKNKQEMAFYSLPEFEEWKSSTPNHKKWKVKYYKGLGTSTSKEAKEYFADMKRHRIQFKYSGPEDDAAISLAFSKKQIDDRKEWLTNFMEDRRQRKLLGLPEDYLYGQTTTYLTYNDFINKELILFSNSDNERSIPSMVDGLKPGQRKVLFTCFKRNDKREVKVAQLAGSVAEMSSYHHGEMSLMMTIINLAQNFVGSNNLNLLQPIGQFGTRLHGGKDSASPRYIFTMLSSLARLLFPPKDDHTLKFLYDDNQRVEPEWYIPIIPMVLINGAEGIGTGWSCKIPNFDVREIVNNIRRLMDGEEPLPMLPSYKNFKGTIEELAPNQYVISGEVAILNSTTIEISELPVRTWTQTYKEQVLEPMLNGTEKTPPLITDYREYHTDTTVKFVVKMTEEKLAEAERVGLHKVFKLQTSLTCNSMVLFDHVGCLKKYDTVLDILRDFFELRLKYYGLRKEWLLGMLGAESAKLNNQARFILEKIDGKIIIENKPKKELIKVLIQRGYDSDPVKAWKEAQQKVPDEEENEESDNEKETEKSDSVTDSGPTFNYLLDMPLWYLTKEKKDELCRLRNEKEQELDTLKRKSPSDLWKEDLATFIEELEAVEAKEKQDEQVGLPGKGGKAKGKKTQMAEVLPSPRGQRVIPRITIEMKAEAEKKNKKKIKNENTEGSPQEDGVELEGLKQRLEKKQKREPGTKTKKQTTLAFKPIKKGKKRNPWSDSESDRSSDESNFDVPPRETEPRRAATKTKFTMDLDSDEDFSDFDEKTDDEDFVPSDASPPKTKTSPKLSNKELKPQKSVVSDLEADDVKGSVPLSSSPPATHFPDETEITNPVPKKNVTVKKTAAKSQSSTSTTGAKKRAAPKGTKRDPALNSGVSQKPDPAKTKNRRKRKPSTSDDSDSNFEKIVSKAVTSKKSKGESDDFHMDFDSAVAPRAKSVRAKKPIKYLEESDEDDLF
# human topoisomerase IIβ, sequence (Q02880 whole entry): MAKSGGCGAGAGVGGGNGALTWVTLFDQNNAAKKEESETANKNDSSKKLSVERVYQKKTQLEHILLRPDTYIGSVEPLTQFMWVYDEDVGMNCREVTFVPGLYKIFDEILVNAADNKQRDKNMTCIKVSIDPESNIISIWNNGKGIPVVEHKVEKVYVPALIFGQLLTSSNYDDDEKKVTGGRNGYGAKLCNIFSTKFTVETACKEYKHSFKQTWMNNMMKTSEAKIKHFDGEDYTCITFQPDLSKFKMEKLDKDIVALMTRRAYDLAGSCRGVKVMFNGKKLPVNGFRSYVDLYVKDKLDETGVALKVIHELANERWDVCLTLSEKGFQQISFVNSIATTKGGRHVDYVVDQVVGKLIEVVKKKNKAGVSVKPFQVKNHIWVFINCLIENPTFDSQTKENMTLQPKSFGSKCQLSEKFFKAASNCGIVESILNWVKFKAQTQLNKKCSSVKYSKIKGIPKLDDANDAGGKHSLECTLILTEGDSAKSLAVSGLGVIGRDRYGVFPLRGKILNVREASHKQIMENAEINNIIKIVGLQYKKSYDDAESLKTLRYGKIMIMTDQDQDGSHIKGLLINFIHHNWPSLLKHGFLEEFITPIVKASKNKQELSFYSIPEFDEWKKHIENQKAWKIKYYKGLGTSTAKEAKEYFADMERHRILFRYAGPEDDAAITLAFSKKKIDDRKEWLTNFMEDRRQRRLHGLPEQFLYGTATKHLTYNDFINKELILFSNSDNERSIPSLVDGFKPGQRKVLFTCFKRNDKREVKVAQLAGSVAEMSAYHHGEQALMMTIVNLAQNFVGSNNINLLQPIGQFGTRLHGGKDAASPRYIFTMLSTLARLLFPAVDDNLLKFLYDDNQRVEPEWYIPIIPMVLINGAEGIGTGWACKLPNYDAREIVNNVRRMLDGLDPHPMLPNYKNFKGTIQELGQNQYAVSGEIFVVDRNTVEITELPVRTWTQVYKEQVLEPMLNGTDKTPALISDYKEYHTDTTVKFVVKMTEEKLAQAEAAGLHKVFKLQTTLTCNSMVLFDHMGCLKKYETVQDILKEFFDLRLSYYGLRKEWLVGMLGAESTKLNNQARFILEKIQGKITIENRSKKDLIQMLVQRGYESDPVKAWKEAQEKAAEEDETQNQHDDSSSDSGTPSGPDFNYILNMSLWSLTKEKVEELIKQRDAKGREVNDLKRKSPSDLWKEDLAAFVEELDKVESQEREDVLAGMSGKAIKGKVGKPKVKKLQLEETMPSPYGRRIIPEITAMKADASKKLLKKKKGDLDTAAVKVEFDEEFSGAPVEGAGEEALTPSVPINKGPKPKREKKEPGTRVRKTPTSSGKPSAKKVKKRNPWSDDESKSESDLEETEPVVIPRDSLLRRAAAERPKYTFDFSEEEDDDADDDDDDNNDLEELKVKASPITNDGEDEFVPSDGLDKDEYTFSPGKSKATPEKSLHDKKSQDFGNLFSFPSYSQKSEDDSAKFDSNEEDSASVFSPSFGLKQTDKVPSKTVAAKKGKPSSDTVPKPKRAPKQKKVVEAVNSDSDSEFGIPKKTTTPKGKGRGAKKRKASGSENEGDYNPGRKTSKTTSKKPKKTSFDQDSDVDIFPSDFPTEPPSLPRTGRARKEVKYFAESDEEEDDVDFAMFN
smiles,measurement,setting,value
COc1cc([C@@H]2c3cc4c(cc3[C@@H](O[C@@H]3O[C@@H]5CO[C@@H](c6cccs6)O[C@H]5[C@H](O)[C@H]3O)[C@H]3COC(=O)[C@H]23)OCO4)cc(OC)c1O [Teniposide],GI50,"[1]; Homo sapiens, 48 h",390 nM
"COc1cc([C@@H]2c3cc4c(cc3[C@@H](O[C@@H]3O[C@@H]5CO[C@@H](C)O[C@H]5[C@H](O)[C@H]3O)[C@H]3COC(=O)[C@H]23)OCO4)cc(OC)c1O [Etoposide, reference compound]",concentration at which cleaved PARP (89 kDa band) is visible / apoptosis initiated,HeLa cells,> 100 µM
same,GI50,"[1]; Homo sapiens, 48 h",990 nM
"CN(C)CCOc1nc2c(c3ccncc13)C(c1cccc(Cl)c1)Cc1ccncc1-2 (centres unmarked) [Example 3, 11-(3-chlorophenyl)-6-(2-dimethylaminoethoxy)-11,12-dihydropyrido[3,4-c]-[1,9]phenanthroline Hydrochloride]",chromatographic logD,logD by HPLC analysis,3.6
same,solubility,[2],5.28 ± 0.09 mM
same,GI50,"[1]; Homo sapiens, 48 h",447 nM
COc1cccc2c1ccc1nc3cccc(C(=O)N[C@H](C)CN(C)C)c3nc12 [XR11576],clinical outcome,[3],"stabilization, but no remission"
same,activity in xenograft,[4],high activity
"COc1cc(-c2cc3ccncc3c3nc(OCCCN(C)C)c4cnccc4c23)cc(OC)c1OC [Example 2, 6-(3-dimethylaminopropoxy)-11-(3,4,5-trimethoxyphenyl)pyrido[3,4-c][1,9]-phenanthroline]",chromatographic logD,logD by HPLC analysis,3.6
same,GI50,"[1]; Homo sapiens, 48 h",52 nM
CCc1c2c(nc3ccc(OC(=O)N4CCC(N5CCCCC5)CC4)cc13)-c1cc3c(c(=O)n1C2)COC(=O)[C@]3(O)CC [Irinotecan],GI50,"[1]; Homo sapiens, 48 h",160 nM
CN(C)CCNc1nc2cc(O)ccc2c2c1C(=O)c1ccccc1-2 [TAS-103],efficacy in patients,[5],"sufficient to keep patients stable for a period of a few months, but a cure could not be achieved"
"COc1ccc2c(c1)-c1nn(CCCN(C)C)c3ccc([N+](=O)[O-])c(c13)N2 [PZA, pyrazoloacridine]",clinical outcome,[6],could not be cured but were stabilized over a few months
same,concentration at which effective in PARP assay,[7]; FIG. 4,100 µM
same,clinical outcome,[8],partial remission
same,GI50,"[1]; Homo sapiens, 48 h",200 nM
"COc1cc(-c2cc3ccncc3c3nc(OCCN(C)C)c4cnccc4c23)cc(OC)c1OC [Example 1, 6-(2-dimethylaminoethoxy)-11-(3,4,5-trimethoxyphenyl)pyrido[3,4-c][1,9]-phenanthroline Hydrochloride]",inhibition of topo IIα,human topoisomerase IIα; Hydrochloride,exemplary inhibition of topo IIα
same,inhibition of topo IIα,"human topoisomerase IIα; listed as exemplary compound 1, Hydrochloride",potently inhibit topo IIα
same,IC50,"human topoisomerase IIα; all three enzymes tested, read-out: IC50 topoisomerase IIα",< 10000 nM
same,IC50,"human topoisomerase I; all three enzymes tested, read-out: IC50 topoisomerase I",< 10000 nM
same,inhibition of topoisomerase I activity,"human topoisomerase I; at 10 μM, FIG. 1",almost complete
same,chromatographic logD,logD by HPLC analysis,3.7
same,solubility,[2],0.87 ± 0.03 mM
same,apoptotic effect in PARP assay,"[7]; FIG. 4, direct comparison with PZA",extraordinarily strong apoptotic effect
same,concentration at which cleaved PARP (89 kDa band) is visible / apoptosis initiated,HeLa cells,1 µM
same,tolerability,"[9]; 1 mg/kg body weight, female athymic nude mice",good tolerability
same,loss of body weight and apathy,"[9]; 5 mg/kg body weight, female athymic nude mice",reversible
same,acute lethal side effects,"[9]; 1, 5 and 10 mg/kg body weight",None
same,IC50,human topoisomerase IIβ,< 10000 nM
same,GI50,"[1]; Homo sapiens, 48 h",49 nM
"CC[C@@]1(O)C(=O)OCc2c1cc1n(c2=O)Cc2cc3ccccc3nc2-1 [Camptothecin, reference compound]",GI50,"[1]; Homo sapiens, 48 h",44 nM
Cc1cnc(NCCCN(C)C)c2c1[nH]c1ccc3cc(O)ccc3c12 [Intoplicin],hepatotoxicity,[10],dose-limiting
same,GI50,[1],530 nM
same,activity against carcinomas,[11],high activity
CC[C@@]1(O)C(=O)OCc2c1cc1n(c2=O)Cc2cc3c(CN(C)C)c(O)ccc3nc2-1 [Topotecan],GI50,"[1]; Homo sapiens, 48 h",14 nM
